This note sets out measurements from patent US8929978B2, “Phototherapy devices and methods comprising optionally substituted terphenyl and quaterphenyl compounds” (Nitto Denko Corporation, priority 2011, dated 2015).

The subject of test [1] is person suffering from pathological myopia. As to the kind of experiment: Verteporphin activated by red OLED light in pathological myopia. To be noted: about 6 mg/m^2 i.v.; retina illuminated about 15 minutes after start of infusion with red OLED. Type of test: in vivo.
Test [2] has as its system person suffering from age-related macular degeneration. Kind of test: Verteporphin activated by red OLED light in age-related macular degeneration. Type of test: in vivo. Particulars: about 6 mg/m^2 i.v.; retina illuminated about 15 minutes after start of infusion with red OLED.
Test [3] relates to person suffering from presumed ocular histoplasmosis. To be noted: in vivo, iv.
The subject of test [4] is person suffering from actinic keratoses. Kind of test: Photodynamic treatment of actinic keratoses lesions with red OLED light. Particulars: 20% topical solution; illuminated about 14-18 hours after application with red OLED of Example 2.
Test [5] relates to CHO-K1 (Chinese Hamster Ovarian Cancer, ATCC, CRL-2243) cell line. Kind of test: Ex-vivo efficacy study with OLED Device A and ALA (MTT cell viability, microscopy).

The structures appear in SMILES notation.

`C=Cc1c(C)c2cc3nc(cc4[nH]c(cc5nc(cc1[nH]2)C(C)=C5CCC(=O)O)c(CCC(=O)OC)c4C)[C@@]1(C)C3=CC=C(C(=O)OC)[C@H]1C(=O)OC` [Verteporphin]: the “patient's vision after treatment” value in test [1], in test [2] and in test [3] was “stabilized” in each case.
Turning to `Cl.NCC(=O)CCC(=O)O` [5-Aminolevulinic acid HCl], the “number or severity of the lesions after treatment” value in test [4] is “reduced”.
As for `NCC(=O)CCC(=O)O` [ALA, 5-aminolevulinic acid], the “cell necrosis, 20 mW/cm^2 versus 10 mW/cm^2 output power” value in test [5] (ALA 1 mM, irradiation time 25 min at 20 mW/cm^2 and 50 min at 10 mW/cm^2 (FIG. 17)) is “somewhat faster with 20 mW/cm^2 than 10 mW/cm^2”. Moreover, the “generation of PpIX (protoporphyrin IX) from ALA in cells” value in test [5] (ALA 0.5, 1, 2 mM, about 16 hrs at 37° C., fluorescence emission at 635 nm) is recorded as “confirmed”. In test [5] (Cricetulus griseus, CHO-K1, light or radiation study, read-out: cells destroyed compared with the reference (MTT cell viability, light dosimetry)), the cytotoxicity at 1000 µM was about 90%. Moreover, the “cell morphology under optical microscope after light irradiation” value in test [5] (after about 25 J/cm^2 red light (630 nm) irradiation, leafy type cells transform to droplet type (FIG. 14)) was “significant and irreversible cell death”.
